# Measurements taken from patent US20250339399A1, “SUPRAMOLECULAR SELF-ASSEMBLY SYSTEM” (Beijing Creatron Institute of Pharmaceutical Research Co., …, priority 2022, published 2025).
# Experiment: not given
# Conditions: cited from earlier work
row,Structure (SMILES),LogD7.4 or Log P
1,"CCC(C)n1ncn(-c2ccc(N3CCN(c4ccc(OCC5COC(Cn6cncn6)(c6ccc(Cl)cc6Cl)O5)cc4)CC3)cc2)c1=O (stereo not shown) [Itraconazole, itraconazole]",7.31

# Experiment: Guest molecule concentration after incubation in initial medium without polymer (Comparative Example 1)
# Type: physicochemical
# Conditions: 0.5 h; 37° C.; 0.05% SDS in pH 6.8 phosphate buffer
# In short: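 Dissolved guest content measured by HPLC of centrifuged supernatants (37° C., 13000 rpm, 5 min) sampled at 0.5 h, 3 h and 6 h. Incubation was polymer-free at 37° C.±0.5° C. in buffers of pH 2.0-7.4; nominal loading was set by maximum clinical dose.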
row,Structure (SMILES),Concentration of guest molecule measured after different incubated time [ng/mL]
1,"CCC(C)n1ncn(-c2ccc(N3CCN(c4ccc(OCC5COC(Cn6cncn6)(c6ccc(Cl)cc6Cl)O5)cc4)CC3)cc2)c1=O (stereo not shown) [Itraconazole, itraconazole]",10700

# Same assay, conditions: 3 h; 37° C.; 0.05% SDS in pH 6.8 phosphate buffer
row,Structure (SMILES),Concentration of guest molecule measured after different incubated time [ng/mL]
1,"CCC(C)n1ncn(-c2ccc(N3CCN(c4ccc(OCC5COC(Cn6cncn6)(c6ccc(Cl)cc6Cl)O5)cc4)CC3)cc2)c1=O (stereo not shown) [Itraconazole, itraconazole]",2900

# Same assay, conditions: 6 h; 37° C.; 0.05% SDS in pH 6.8 phosphate buffer
row,Structure (SMILES),Concentration of guest molecule measured after different incubated time [ng/mL]
1,"CCC(C)n1ncn(-c2ccc(N3CCN(c4ccc(OCC5COC(Cn6cncn6)(c6ccc(Cl)cc6Cl)O5)cc4)CC3)cc2)c1=O (stereo not shown) [Itraconazole, itraconazole]",2700

# Experiment: Binary supramolecular self-assembly systems of polymer and target: guest concentration over incubation time (Comparative Example 2)
# Type: physicochemical
# Conditions: binary system with 0.5% polymer 101; incubation 0.5 h
# Description: Experiments were conducted according to the steps in Comparative Example 1, and quantitative analysis was carried out using the analytical method for each target to investigate the regulation ability […] stacking.
row,Structure (SMILES),Concentration of the target in the solution measured after different incubation time [ng/mL]
1,"CCC(C)n1ncn(-c2ccc(N3CCN(c4ccc(OCC5COC(Cn6cncn6)(c6ccc(Cl)cc6Cl)O5)cc4)CC3)cc2)c1=O (stereo not shown) [Itraconazole, itraconazole]",47900

# Same assay, conditions: binary system with 0.5% polymer 101; incubation 3 h
row,Structure (SMILES),Concentration of the target in the solution measured after different incubation time [ng/mL]
1,"CCC(C)n1ncn(-c2ccc(N3CCN(c4ccc(OCC5COC(Cn6cncn6)(c6ccc(Cl)cc6Cl)O5)cc4)CC3)cc2)c1=O (stereo not shown) [Itraconazole, itraconazole]",4800

# Same assay, conditions: binary system with 0.5% polymer 101; incubation 6 h
row,Structure (SMILES),Concentration of the target in the solution measured after different incubation time [ng/mL]
1,"CCC(C)n1ncn(-c2ccc(N3CCN(c4ccc(OCC5COC(Cn6cncn6)(c6ccc(Cl)cc6Cl)O5)cc4)CC3)cc2)c1=O (stereo not shown) [Itraconazole, itraconazole]",3000

# Same assay, conditions: binary system with 0.5% polymer 102; incubation 0.5 h
row,Structure (SMILES),Concentration of the target in the solution measured after different incubation time [ng/mL]
1,"CCC(C)n1ncn(-c2ccc(N3CCN(c4ccc(OCC5COC(Cn6cncn6)(c6ccc(Cl)cc6Cl)O5)cc4)CC3)cc2)c1=O (stereo not shown) [Itraconazole, itraconazole]",69700

# Same assay, conditions: binary system with 0.5% polymer 102; incubation 3 h
row,Structure (SMILES),Concentration of the target in the solution measured after different incubation time [ng/mL]
1,"CCC(C)n1ncn(-c2ccc(N3CCN(c4ccc(OCC5COC(Cn6cncn6)(c6ccc(Cl)cc6Cl)O5)cc4)CC3)cc2)c1=O (stereo not shown) [Itraconazole, itraconazole]",34500

# Same assay, conditions: binary system with 0.5% polymer 102; incubation 6 h
row,Structure (SMILES),Concentration of the target in the solution measured after different incubation time [ng/mL]
1,"CCC(C)n1ncn(-c2ccc(N3CCN(c4ccc(OCC5COC(Cn6cncn6)(c6ccc(Cl)cc6Cl)O5)cc4)CC3)cc2)c1=O (stereo not shown) [Itraconazole, itraconazole]",24700

# Same assay, conditions: binary system with 0.5% polymer 103; incubation 0.5 h
row,Structure (SMILES),Concentration of the target in the solution measured after different incubation time [ng/mL]
1,"CCC(C)n1ncn(-c2ccc(N3CCN(c4ccc(OCC5COC(Cn6cncn6)(c6ccc(Cl)cc6Cl)O5)cc4)CC3)cc2)c1=O (stereo not shown) [Itraconazole, itraconazole]",14100

# Same assay, conditions: binary system with 0.5% polymer 103; incubation 3 h
row,Structure (SMILES),Concentration of the target in the solution measured after different incubation time [ng/mL]
1,"CCC(C)n1ncn(-c2ccc(N3CCN(c4ccc(OCC5COC(Cn6cncn6)(c6ccc(Cl)cc6Cl)O5)cc4)CC3)cc2)c1=O (stereo not shown) [Itraconazole, itraconazole]",8600

# Same assay, conditions: binary system with 0.5% polymer 103; incubation 6 h
row,Structure (SMILES),Concentration of the target in the solution measured after different incubation time [ng/mL]
1,"CCC(C)n1ncn(-c2ccc(N3CCN(c4ccc(OCC5COC(Cn6cncn6)(c6ccc(Cl)cc6Cl)O5)cc4)CC3)cc2)c1=O (stereo not shown) [Itraconazole, itraconazole]",1900

# Same assay, conditions: binary system with 0.5% polymer 104; incubation 0.5 h
row,Structure (SMILES),Concentration of the target in the solution measured after different incubation time [ng/mL]
1,"CCC(C)n1ncn(-c2ccc(N3CCN(c4ccc(OCC5COC(Cn6cncn6)(c6ccc(Cl)cc6Cl)O5)cc4)CC3)cc2)c1=O (stereo not shown) [Itraconazole, itraconazole]",31500

# Same assay, conditions: binary system with 0.5% polymer 104; incubation 3 h
row,Structure (SMILES),Concentration of the target in the solution measured after different incubation time [ng/mL]
1,"CCC(C)n1ncn(-c2ccc(N3CCN(c4ccc(OCC5COC(Cn6cncn6)(c6ccc(Cl)cc6Cl)O5)cc4)CC3)cc2)c1=O (stereo not shown) [Itraconazole, itraconazole]",7100

# Same assay, conditions: binary system with 0.5% polymer 104; incubation 6 h
row,Structure (SMILES),Concentration of the target in the solution measured after different incubation time [ng/mL]
1,"CCC(C)n1ncn(-c2ccc(N3CCN(c4ccc(OCC5COC(Cn6cncn6)(c6ccc(Cl)cc6Cl)O5)cc4)CC3)cc2)c1=O (stereo not shown) [Itraconazole, itraconazole]",3100

# Same assay, conditions: binary system with 0.5% polymer 106; incubation 0.5 h
row,Structure (SMILES),Concentration of the target in the solution measured after different incubation time [ng/mL]
1,"CCC(C)n1ncn(-c2ccc(N3CCN(c4ccc(OCC5COC(Cn6cncn6)(c6ccc(Cl)cc6Cl)O5)cc4)CC3)cc2)c1=O (stereo not shown) [Itraconazole, itraconazole]",43300

# Same assay, conditions: binary system with 0.5% polymer 106; incubation 3 h
row,Structure (SMILES),Concentration of the target in the solution measured after different incubation time [ng/mL]
1,"CCC(C)n1ncn(-c2ccc(N3CCN(c4ccc(OCC5COC(Cn6cncn6)(c6ccc(Cl)cc6Cl)O5)cc4)CC3)cc2)c1=O (stereo not shown) [Itraconazole, itraconazole]",8300

# Same assay, conditions: binary system with 0.5% polymer 106; incubation 6 h
row,Structure (SMILES),Concentration of the target in the solution measured after different incubation time [ng/mL]
1,"CCC(C)n1ncn(-c2ccc(N3CCN(c4ccc(OCC5COC(Cn6cncn6)(c6ccc(Cl)cc6Cl)O5)cc4)CC3)cc2)c1=O (stereo not shown) [Itraconazole, itraconazole]",6400

# Same assay, conditions: binary system with 0.5% polymer 107; incubation 0.5 h
row,Structure (SMILES),Concentration of the target in the solution measured after different incubation time [ng/mL]
1,"CCC(C)n1ncn(-c2ccc(N3CCN(c4ccc(OCC5COC(Cn6cncn6)(c6ccc(Cl)cc6Cl)O5)cc4)CC3)cc2)c1=O (stereo not shown) [Itraconazole, itraconazole]",13500

# Same assay, conditions: binary system with 0.5% polymer 107; incubation 3 h
row,Structure (SMILES),Concentration of the target in the solution measured after different incubation time [ng/mL]
1,"CCC(C)n1ncn(-c2ccc(N3CCN(c4ccc(OCC5COC(Cn6cncn6)(c6ccc(Cl)cc6Cl)O5)cc4)CC3)cc2)c1=O (stereo not shown) [Itraconazole, itraconazole]",1700

# Same assay, conditions: binary system with 0.5% polymer 107; incubation 6 h
row,Structure (SMILES),Concentration of the target in the solution measured after different incubation time [ng/mL]
1,"CCC(C)n1ncn(-c2ccc(N3CCN(c4ccc(OCC5COC(Cn6cncn6)(c6ccc(Cl)cc6Cl)O5)cc4)CC3)cc2)c1=O (stereo not shown) [Itraconazole, itraconazole]",1200
